Tests used:
[1] = tested on: P. aeruginosa PDO300 biofilm; test: Effect of GM-CSF on 24-h PDO300 biofilm, alone and with antibiotic; type: cell-based, Pseudomonas aeruginosa; settings: for average CFU/ml of biofilm cells reduced by: reduction, PDO300 biofilm
Experimental: This Example describes the treatment of biofilms made from P. aeruginosa PAO1, PDO300 and Escherichia coli K12, with GM-CSF introduced directly or together with an antibiotic to test the synergy.
In brief, after preparing an overnight culture, it was subcultured to an initial OD600 of 0.01 to a total volume of 20 mL M63 medium (for PAO1 and PDO300) or 20 ml LB medium (for E. coli K12) in a petri dish with 316L stainless steel coupons (1.75 cm×1 cm). The biofilm was grown for 24 h at 37° C. without shaking. After incubation, the coupons were washed by gently dipping in 0.85% NaCl twice using tweezers and were placed in new empty petri dishes.
To test the synergistic effects between GM-CSF (2.43 pg/mL or 0.17 pM) and antibiotics, a total of 8 coupons were analyzed. These 8 coupons were placed in 4 petri dishes (2 coupons in each dish). The two dishes were labeled as control and the other two as treatment samples. In the treatment samples, GM-CSF was added to 20 mL of 0.85% NaCl to a concentration of 2.43 pg/mL (or 0.17 pM). The control samples were supplemented with the same amount of PBS and BSA as present in the samples with 2.43 pg/ml (or 0.17 pM) GM-CSF. The coupons were incubated at 37° C. for 2 h.
After incubation, a control dish and a treatment dish was selected for studying the killing effect of 2.43 pg/ml GM-CSF on biofilm cells. Each coupon after gentle washing with 0.85% NaCl buffer, was placed in a test tube with 3 mL 0.85% NaCl buffer in each. They were sonicated (B200, Sinosonic Industrial Co., Ltd., Taiwan) for 4 mins to release the biofilm cells in the buffer. After vortexing for 1 min, they were plated on LB agar plates using drop plate method. The CFU was counted after incubation at 37° C. for 24 h to count the total number of viable cells. Furthermore, the synergistic effect of antibiotics with GM-CSF was evaluated with additional 3.5 h treatment with antibiotic at 37° C. After incubation, drop plate method was performed and the CFU was counted to understand if there is a synergistic effect.

[2] = tested on: biofilm cells of PDO300; test: Synergistic effects of GM-CSF, tobramycin and alginate lyase on biofilm cells of PDO300; type: cell-based, Pseudomonas aeruginosa; settings: 2.43 pg/mL GM-CSF with 200 μg/mL tobramycin, 3.5 h
Experimental: This Example describes an experiment, similar to the one described in Example 5 with respect to the planktonic cells of PDO300, which was performed on the biofilm cells of PDO300.
In brief, after preparing an overnight culture, it was subcultured to an OD600 of 0.01 in a total volume of 20 mL M63 medium with 316L stainless steel coupons (1.75 cm×1 cm). The biofilm was grown for 24 h at 37° C. After incubation, the coupons were washed by gently dipping in 0.85% NaCl buffer twice using tweezers and then placed in new empty petri dishes.
To test the synergistic effects of GM-CSF (2.43 pg/mL), tobramycin (200 μg/mL) and alginate lyase (0.5 mg/mL), a total of 8 coupons were included. These 8 coupons were placed in 8 microcentrifuge tubes with 2 mL of 0.85% NaCl buffer. There were 4 treatments samples, with 2 coupons for each treatment (i) Control (ii) […] Tobramycin (iii) 200 μg/mL Tobramycin and 2.43 pg/mL GM-CSF and (iv) 200 μg/mL Tobramycin, 2.43 pg/mL GM-CSF and 0.5 mg/mL Alginate lyase. […]
After incubation, each coupon was gently washed with 0.85% NaCl buffer and placed in a test tube with 2 mL of 0.85% NaCl buffer. […] The CFU was counted after incubation at 37° C. for 24 h to quantify the total number of viable cells. The synergistic effects of GM-CSF, tobramycin and alginate lyase were quantified based on CFU data.

GM-CSF: granulocyte macrophage-colony stimulating factor, a cytokine secreted by macrophages; recombinant human GM-CSF (R&D systems) in binding tests
% change in avg. CFU/ml after adding factor + CIP ([1]; 24-h PDO300 biofilm, 2.43 pg/mL GM-CSF with 200 μg/mL ciprofloxacin): −14.0% | % change in avg. CFU/ml after adding factor + TOB ([1]; 24-h PDO300 biofilm, 2.43 pg/mL GM-CSF with 200 μg/mL tobramycin): −13.0% | % change in avg. CFU/ml after adding factor + GEN ([1]; 24-h PDO300 biofilm, 2.43 pg/ml GM-CSF with 200 μg/mL gentamicin): −10.8% | % change in avg. CFU/ml after adding factor + TET ([1]; 24-h PDO300 biofilm, 2.43 pg/ml GM-CSF with 200 μg/mL tetracycline): −7.3% | average CFU/ml of biofilm cells reduced by ([1]; 2.43 pg/mL GM-CSF alone, average of 2 experiments): 5.64% | average CFU/ml of biofilm cells reduced by ([1]; 2.43 pg/mL GM-CSF in the presence of 200 μg/mL ciprofloxacin): 8.8% | average CFU/ml of biofilm cells reduced by ([1]; 2.43 pg/mL GM-CSF in the presence of 200 μg/mL gentamicin): 5.6% | average CFU/ml of biofilm cells reduced by ([1]; 2.43 pg/mL GM-CSF in the presence of 200 μg/mL tetracycline): 1.8% | average CFU/ml of biofilm cells reduced by ([1]; 2.43 pg/mL GM-CSF in the presence of 200 μg/mL tobramycin): 7.7% | additional killing of biofilm cells compared to the 200 μg/mL tobramycin treatment alone [2]: −24.7±5.3%

— US9370189B2, “Controlling Pseudomonas aeruginosa persister cells with GM-CSF” (priority 2012, dated 2016)
